Data as given in patent US11505526B2, “Aryl-piperidine derivatives” (Artax Biopharma Inc., priority 2017, dated 2022).
Read-outs that look alike come from different tables or passages of the source.

Key:
[1] = biological target: CYP2C19 (Homo sapiens (Human), UniProt P33261); experiment: CYP inhibition, CYP2C19; type: in vitro ADME; settings: microsomes, metabolite 4′-hydroxy mephenytoin
Experimental: (§1) For each isozyme, microsomes-buffer-substrate mixture (MBS mix) is prepared by premixing appropriate volumes of buffer, microsomes and substrate. MBS mixture (179 μL) is transferred to a 96-well reaction plate. An aliquot (1 μL) is spiked from corresponding wells of Test Item stock solution plate to reaction plate. The reaction plate is pre-incubated for 5 minutes at 37° C. Reaction is initiated by the addition of 20 μL of NADPH solution. Each experiment is performed in duplicate. Reaction plate is incubated for predetermined time at 37° C. and quenched using either 200 μL of acetonitrile (for CYP2C9, CYP2D6, CYP2C19 and CYP3A4) or 200 μL of a mixture of 70:30 1% formic acid:acetonitrile (for CYP1A2).

[2] = biological target: CYP3A4 (Homo sapiens (Human), UniProt P08684); experiment: CYP inhibition, CYP3A4; type: in vitro ADME; settings: footnote not given, CYP3A4 metabolites monitored: 1-hydroxy midazolam, 6-β-hydroxy testosterone
Experimental: as §1

[3] = Microsomal stability, human liver microsomes; type: in vitro ADME; settings: 0.5 mg/mL protein, read-out: Microsomal stability (T1/2 min) Human
Experimental: (§2) Intrinsic clearance studies are performed individually with mouse, rat and human liver microsomes at 0.5 mg/mL protein concentration. Briefly, for protein concentration 0.5 mg/mL assay, liver microsomal protein (12.5 uL), NAPDH (50 uL) and phosphate buffer (435 uL) are co-incubated (pre-incubation) in a 96-well deep well plate in an orbital incubator (10 min, 37° C.). Reactions are initiated by the addition of 2.5 uL of test item working stock solution (100 uM). Aliquots (50 uL) are withdrawn from the reaction tube at 0, 5, 10, 20 and 30 minutes and the reaction is immediately terminated by transferring to a 96 deep well plate containing 50 uL of acetonitrile. Verapamil is used as a positive control in mouse, rat and human liver microsomes. To the quenched samples internal standard is added and vortex mixed followed by centrifugation at 4000 rpm for 10 minutes and an aliquot of supernatant is taken for LC-MS/MS analysis. Samples are analyzed by a suitable fit-for-purpose multiple reaction monitoring method developed on LC-MS/MS using and API 4000 mass spectrometer to estimate the area ratio (analyte peak area/internal standard peak area).

[4] = biological target: CYP2D6 (Homo sapiens (Human), UniProt P10635); experiment: CYP inhibition, CYP2D6; type: in vitro ADME; settings: microsomes, metabolite dextrorphan
Experimental: as §1

[5] = biological target: hERG (Homo sapiens (Human), UniProt Q12809); experiment: hERG inhibition, patch clamp (Port-a-Patch) on HEK cells stably transfected with the hERG clone, IKr current; type: cell-based; settings: concentrations tested 1, 3, 10 and 30 μM
Experimental: (§3) HEK cells stably transfected with the hERG clone are maintained at 37±2° C. in a 5% CO2 incubator. The cells are initially revived and grown in DMEM/F12+GlutaMAX-I medium supplemented with 9% fetal bovine serum (FBS) and antibiotics (Penicillin 100 IU/mL Streptomycin 100 μg/mL) (complete medium). Furthermore, the cells are continuously maintained and passaged in complete media in addition to the appropriate concentration of selection antibiotic (Geneticin (G418) 200 μg/mL) (Selection media). The cells are sub cultured every 2-3 days and medium is changed with complete medium at least a day before the experiment.
(§4) The cells are harvested on the day of experiment, dislodged and suspended in sterile filtered external solution (NaCl 140 mM, KCl 4 mM, MgCl2 1 mM, CaCl2 2 mM, D-Glucose monohydrate 5 mM, Hepes/NaOH 10 mM, pH 7.4, Osmolarity:298+/−5 mOsmol).
(§5) The NPC®-1 chip of the Port-a-Patch® is filled with 5 μL of internal solution (KCl 50 mM, NaCl 10 mM, KFl 60 mM, EGTA 20 mM, Hepes/KOH 10 mM, pH 7.2, Osmolarity: 285+/−5 mOsmol) and it is screwed onto the chip holder. The Faraday cage is then fixed on the chip holder, such that the external electrode is placed near to the chip aperture. 5 μL of external solution is added to the center of the aperture so that the external electrode is also in contact with the solution.
(§6) The experiment is be initiated. […] The suction automatically attracts a cell to the aperture, resulting in an increase in the chip resistance. When the cell is captured and the set threshold for the resistance is reached, the software recognizes this increase in resistance and proceeds to the next step of the sealing procedure. 20 μL of seal enhancer solution (NaCl 80 mM, KCl 4 mM, MgCl2 10 mM, CaCl2) 35 mM, Hepes (Na+salt)/HCl pH 7.4, Osmolarity: 298+/−5 mOsmol) is added 2-3 times. When the threshold resistance is reached, Patch Control automatically moves to the step of improving the seal. When the desirable resistance (Rpip) is reached, whole cell mode is attained and maintained.
(§7) Finally, hERG protocol is selected to run the experiment. The seal enhancer solution is replaced with 20 μL external solution after 2-4 rinses and then the test item is added (from lower to higher concentration) and checked for current inhibition. All the experiments are performed at ambient temperature (22-25° C.).
(§8) A schematic diagram (FIG. 3) of the Pulse protocol: Cells are stimulated every 10 seconds using the following protocol. The holding potential, sweep intervals and the depolarization/repolarization potentials are furnished in the table below.
(§9) Once the stable current is attained (at least 2-5 minutes) vehicle control is added and the current measured till the stable current is achieved. 3-5 consecutive data points from the last stable current phase are considered for further analysis. […] The system performs on-line analysis for several parameters which include functions that acquire data from traces and functions that perform calculations on the results of other functions.

[6] = biological target: hERG (IKr current) (Homo sapiens (Human), UniProt Q12809); experiment: as above; type: cell-based; settings: human, HEK cells stably transfected with the hERG clone, pH 7.4, IKr current
Experimental: as §3, §4, §5, §6, §7, §8, §9

[7] = biological target: CYP2C9 (Homo sapiens (Human), UniProt P11712); experiment: CYP inhibition, CYP2C9; type: in vitro ADME; settings: microsomes, metabolite 4-hydroxy diclofenac
Experimental: as §1

[8] = Microsomal stability, mouse liver microsomes; type: in vitro ADME; settings: 0.5 mg/mL protein, read-out: Microsomal stability (T1/2 min) Mouse
Experimental: as §2

[9] = biological target: CYP1A2 (Homo sapiens (Human), UniProt P05177); experiment: CYP inhibition, CYP1A2; type: in vitro ADME; settings: microsomes, metabolite acetaminophen
Experimental: as §1

[10] = Microsomal stability, rat liver microsomes; type: in vitro ADME; settings: 0.5 mg/mL protein, read-out: Microsomal stability (T1/2 min) Rat
Experimental: as §2

[11] = CYP3A4^a, read-out: CYP IC50 uM CYP3A4^a
[12] = read-out: Percent Inhibition Mean (%)
[13] = read-out: Percent Inhibition Trial I
[14] = read-out: Percent Inhibition Trial II

Chain of CYP3A4 (P08684 whole entry): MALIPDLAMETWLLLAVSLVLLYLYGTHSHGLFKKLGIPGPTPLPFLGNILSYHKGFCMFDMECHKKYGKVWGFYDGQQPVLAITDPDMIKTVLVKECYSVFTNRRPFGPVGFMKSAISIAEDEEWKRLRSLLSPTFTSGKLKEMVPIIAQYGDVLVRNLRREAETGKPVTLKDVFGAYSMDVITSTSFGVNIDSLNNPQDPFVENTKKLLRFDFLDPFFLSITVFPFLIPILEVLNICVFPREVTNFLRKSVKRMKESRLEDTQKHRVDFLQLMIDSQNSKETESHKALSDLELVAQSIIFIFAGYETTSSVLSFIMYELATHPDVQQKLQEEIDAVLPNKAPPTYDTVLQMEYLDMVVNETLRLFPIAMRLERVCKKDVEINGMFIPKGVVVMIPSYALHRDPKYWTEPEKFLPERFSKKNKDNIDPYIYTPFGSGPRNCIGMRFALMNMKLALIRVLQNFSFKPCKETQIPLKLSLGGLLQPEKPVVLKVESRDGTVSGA
Chain of hERG (IKr current) (Q12809 whole entry): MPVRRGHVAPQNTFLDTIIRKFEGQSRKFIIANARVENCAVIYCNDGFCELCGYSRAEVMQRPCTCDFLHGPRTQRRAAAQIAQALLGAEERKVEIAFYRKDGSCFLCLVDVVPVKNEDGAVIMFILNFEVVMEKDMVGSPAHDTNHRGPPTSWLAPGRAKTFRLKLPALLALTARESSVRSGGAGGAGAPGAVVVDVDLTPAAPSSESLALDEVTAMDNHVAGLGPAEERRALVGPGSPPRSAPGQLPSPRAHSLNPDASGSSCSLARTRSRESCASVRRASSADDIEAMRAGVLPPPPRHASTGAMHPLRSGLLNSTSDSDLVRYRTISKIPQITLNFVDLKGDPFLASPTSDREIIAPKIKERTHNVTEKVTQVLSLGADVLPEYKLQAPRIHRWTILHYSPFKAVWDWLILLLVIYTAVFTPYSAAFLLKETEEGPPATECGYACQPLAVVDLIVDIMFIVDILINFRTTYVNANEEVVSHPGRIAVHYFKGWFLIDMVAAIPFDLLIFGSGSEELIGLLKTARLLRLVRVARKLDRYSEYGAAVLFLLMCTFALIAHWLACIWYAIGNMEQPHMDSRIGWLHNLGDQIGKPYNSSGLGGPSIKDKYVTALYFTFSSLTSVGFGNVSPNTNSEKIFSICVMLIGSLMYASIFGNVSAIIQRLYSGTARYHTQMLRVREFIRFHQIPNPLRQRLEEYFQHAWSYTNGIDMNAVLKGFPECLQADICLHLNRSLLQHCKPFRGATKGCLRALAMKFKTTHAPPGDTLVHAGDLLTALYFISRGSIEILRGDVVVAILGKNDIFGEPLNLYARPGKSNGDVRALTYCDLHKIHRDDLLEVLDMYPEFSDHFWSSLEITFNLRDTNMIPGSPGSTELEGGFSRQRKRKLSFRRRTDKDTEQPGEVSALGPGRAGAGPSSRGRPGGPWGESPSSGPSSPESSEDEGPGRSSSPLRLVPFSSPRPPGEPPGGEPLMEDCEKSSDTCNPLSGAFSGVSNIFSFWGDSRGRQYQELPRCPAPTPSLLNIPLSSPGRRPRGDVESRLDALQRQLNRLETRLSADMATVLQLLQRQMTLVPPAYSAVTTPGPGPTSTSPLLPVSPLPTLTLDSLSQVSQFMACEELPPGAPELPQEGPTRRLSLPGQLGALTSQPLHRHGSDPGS
Chain of hERG (Q12809 whole entry): as above
Chain of CYP2D6 (P10635 whole entry): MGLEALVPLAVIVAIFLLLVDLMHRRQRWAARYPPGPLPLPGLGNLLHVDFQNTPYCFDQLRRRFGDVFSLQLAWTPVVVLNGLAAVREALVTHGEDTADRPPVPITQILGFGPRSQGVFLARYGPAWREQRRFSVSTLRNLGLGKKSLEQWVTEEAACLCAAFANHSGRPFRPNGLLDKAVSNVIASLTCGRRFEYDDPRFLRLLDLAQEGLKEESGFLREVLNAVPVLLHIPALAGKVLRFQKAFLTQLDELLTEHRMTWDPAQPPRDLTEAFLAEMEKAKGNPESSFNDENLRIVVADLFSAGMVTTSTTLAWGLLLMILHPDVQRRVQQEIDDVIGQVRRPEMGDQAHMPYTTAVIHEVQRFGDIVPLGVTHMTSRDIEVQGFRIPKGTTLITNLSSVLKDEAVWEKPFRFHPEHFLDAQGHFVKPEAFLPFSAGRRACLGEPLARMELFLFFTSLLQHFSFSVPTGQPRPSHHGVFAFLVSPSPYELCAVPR
Chain of CYP2C9 (P11712 whole entry): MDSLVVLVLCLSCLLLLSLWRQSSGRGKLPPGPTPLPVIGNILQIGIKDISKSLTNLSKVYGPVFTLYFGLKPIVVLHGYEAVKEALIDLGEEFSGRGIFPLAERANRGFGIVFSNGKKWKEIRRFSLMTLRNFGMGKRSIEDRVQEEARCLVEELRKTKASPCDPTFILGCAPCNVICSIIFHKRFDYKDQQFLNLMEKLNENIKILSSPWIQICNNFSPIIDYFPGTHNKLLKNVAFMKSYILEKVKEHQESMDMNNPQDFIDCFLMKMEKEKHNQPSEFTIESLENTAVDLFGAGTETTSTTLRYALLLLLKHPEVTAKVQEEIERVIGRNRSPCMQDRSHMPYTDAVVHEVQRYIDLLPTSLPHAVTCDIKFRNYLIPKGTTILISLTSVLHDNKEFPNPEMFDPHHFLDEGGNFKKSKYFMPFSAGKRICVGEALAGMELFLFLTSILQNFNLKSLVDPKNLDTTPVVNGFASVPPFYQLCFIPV
Chain of CYP1A2 (P05177 whole entry): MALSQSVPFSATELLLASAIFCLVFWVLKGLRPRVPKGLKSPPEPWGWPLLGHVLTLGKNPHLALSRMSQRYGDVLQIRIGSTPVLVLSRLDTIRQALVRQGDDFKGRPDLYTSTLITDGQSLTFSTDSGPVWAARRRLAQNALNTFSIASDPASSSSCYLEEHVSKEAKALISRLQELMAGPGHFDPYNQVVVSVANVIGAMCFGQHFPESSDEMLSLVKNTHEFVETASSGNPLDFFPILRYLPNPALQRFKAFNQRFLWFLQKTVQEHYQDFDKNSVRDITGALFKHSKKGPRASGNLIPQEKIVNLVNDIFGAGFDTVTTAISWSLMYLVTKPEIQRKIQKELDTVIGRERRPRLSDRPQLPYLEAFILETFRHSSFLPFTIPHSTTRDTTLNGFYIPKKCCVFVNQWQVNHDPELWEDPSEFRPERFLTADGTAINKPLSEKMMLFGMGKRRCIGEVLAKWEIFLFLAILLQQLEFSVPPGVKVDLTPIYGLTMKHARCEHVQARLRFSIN
Chain of CYP2C19 (P33261 whole entry): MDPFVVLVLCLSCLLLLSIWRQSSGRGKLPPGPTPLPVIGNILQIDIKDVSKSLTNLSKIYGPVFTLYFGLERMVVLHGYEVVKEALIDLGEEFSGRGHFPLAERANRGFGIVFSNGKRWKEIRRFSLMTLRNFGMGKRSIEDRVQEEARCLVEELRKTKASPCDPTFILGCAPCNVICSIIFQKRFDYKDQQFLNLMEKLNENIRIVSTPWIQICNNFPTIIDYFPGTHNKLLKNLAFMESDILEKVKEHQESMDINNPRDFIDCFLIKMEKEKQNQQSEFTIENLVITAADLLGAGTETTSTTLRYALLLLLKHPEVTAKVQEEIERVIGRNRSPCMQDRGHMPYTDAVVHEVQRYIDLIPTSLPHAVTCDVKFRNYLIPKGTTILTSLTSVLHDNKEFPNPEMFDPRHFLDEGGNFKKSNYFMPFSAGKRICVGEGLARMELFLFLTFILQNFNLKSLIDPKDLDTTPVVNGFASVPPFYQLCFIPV

Row | Structure (SMILES) | IC50 [1] | IC50 [2, 11] | IC50 ([2]; read-out: CYP IC50 uM CYP3A4^b) | half-life at 0.5 µM [3] | IC50 [4] | IC50 [5] | inhibition at 1 µM [6, 12] | inhibition at 1 µM [6, 13] | inhibition at 1 µM [6, 14] | inhibition at 3 µM [6, 12] | inhibition at 3 µM [6, 13] | inhibition at 3 µM [6, 14] | inhibition at 10 µM [6, 12] | inhibition at 10 µM [6, 13] | inhibition at 10 µM [6, 14] | inhibition at 30 µM [6, 12] | inhibition at 30 µM [6, 13] | inhibition at 30 µM [6, 14] | IC50 [7] | half-life at 0.5 µM [8] | also measured
1 | O=C(c1ncccn1)C1CCCN(Cc2ccccc2)C1 (stereo not drawn) [IV-7] | > 50 µM | > 50 µM | > 50 µM | ≥ 30 min | 5 to 20 µM | 73.2 µM | 0% | 0% | 0% | 0.73% | 1.46% | 0% | 1.99% | 3.44% | 0.54% | 21.6% | 17.2% | 25.9% | > 50 µM | ≥ 30 min | IC50 [9]: > 50 µM; half-life at 0.5 µM [10]: 10 to 30 min
2 | O=C(c1ccc(Cl)cc1)C1CCCN(C(=O)c2ccccc2)C1 (stereo not drawn) [Compound V-4] | ≤ 5 µM | > 50 µM | 20 to 50 µM | 10 to 30 min | ≤ 5 µM | 76 µM | 13.2% | 16.2% | 10.2% | 18.8% | 20.5% | 17% | 23.1% | 26.4% | 19.8% | 39.1% | 39.5% | 38.7% | 5 to 20 µM | < 10 min | IC50 [9]: ≤ 5 µM; half-life at 0.5 µM [10]: < 10 min
3 | O=C(c1ccncc1)C1CCCN(Cc2ccccc2)C1 (stereo not drawn) [IV-6] | ≤ 5 µM | ≤ 5 µM | 5 to 20 µM | 10 to 30 min | ≤ 5 µM | 44.6 µM | 2.37% | 0% | 4.74% | 0% | 0% | 0% | 10.2% | 7.16% | 13.1% | 35.5% | 39.9% | 31.1% | 5 to 20 µM | < 10 min | IC50 [9]: 20 to 50 µM; half-life at 0.5 µM [10]: < 10 min
